Positions of bridges follow the written chain, without caps; N, C: chain ends. Residues, ends and D or L forms follow the SMILES beside them.
Key:
rat ASIC1a channel = molecular target: T1, rat ASIC1a channel (Rattus norvegicus, UniProt P55926); assay: Two-electrode voltage clamp, rat ASIC1a in X. laevis oocytes; type: cell-based
T1 construct: expressed in transfected cells; host or cells: Xenopus laevis oocytes injected with mRNA made from a pCI-rASIC1a plasmid
T1 sequence (P55926 1-526): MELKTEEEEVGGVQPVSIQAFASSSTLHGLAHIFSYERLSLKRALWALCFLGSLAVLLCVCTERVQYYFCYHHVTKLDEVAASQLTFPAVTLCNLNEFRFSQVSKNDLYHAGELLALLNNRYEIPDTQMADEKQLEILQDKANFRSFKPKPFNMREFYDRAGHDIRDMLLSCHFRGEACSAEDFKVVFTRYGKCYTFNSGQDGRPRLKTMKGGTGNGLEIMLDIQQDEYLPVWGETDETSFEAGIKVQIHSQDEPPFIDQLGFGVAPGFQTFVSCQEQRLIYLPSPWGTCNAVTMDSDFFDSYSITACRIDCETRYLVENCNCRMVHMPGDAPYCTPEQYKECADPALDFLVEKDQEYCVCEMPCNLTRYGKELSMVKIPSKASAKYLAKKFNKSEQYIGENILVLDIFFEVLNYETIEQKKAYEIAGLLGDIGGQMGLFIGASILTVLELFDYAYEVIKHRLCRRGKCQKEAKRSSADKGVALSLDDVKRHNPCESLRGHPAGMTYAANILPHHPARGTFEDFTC
Method: Figure 3 The effect of mutant peptides S16K and A23K on rat ASIC1a and ASIC3 channels. […] (B) Dose–response curves for the inhibitory effect of mutant peptides on ASIC1a. Each data point represents data from 5 cells. (C) Representative current traces of Ugr9-1, S16K, and A23K at a concentration of 12.5 µM on ASIC3. […] Each point represents data from 5 cells. The depicted currents were induced by a pH 5.5 stimulus following a conditioning pH of 7.4, with peptides applied for 30 s before the pH stimulus. The holding potential (Vh) was −50 mV, and the time interval between applications ranged from 1 to 2 min. Data are presented as mean ± S.E.M.
A small portion of the ovary was isolated from frogs under anesthesia induced by a 0.17% solution of procaine methanesulphonate (MS222) (Sigma), followed by treatment with collagenase (1 mg/mL) at room temperature for 2 h. Oocytes at stages IV and V, devoid of follicular membranes, were transferred to ND-96 medium (containing 96 mM NaCl, 5 mM HEPES, 2 mM KCl, 1.8 mM CaCl2, 1 mM MgCl2, pH 7.4). mRNA synthesis was performed from pcDNA3.1 vectors (Invitrogen, Carlsbad, CA, USA) containing the rat ASIC3 gene, as well as pCI vectors containing genes for rat ASIC1a, its mutant analogues, and ASIC1b. mRNA (2.5–10 ng) was then injected into the oocytes. For the ASIC1a/3 heteromeric channels, the mRNA encoding the ASIC1a and ASIC3 subunits were injected in a 1:5 ratio, respectively. Subsequently, the oocytes were incubated for 2–3 days at a temperature of 17–19 °C in ND96 medium supplemented with gentamicin and streptomycin (20 µg/mL each).
Whole-cell electrophysiological recordings of ASIC channels were conducted using a two-electrode voltage-clamp setup. Microelectrodes were filled with 3 M KCl. Recordings from oocytes were carried out at a holding potential of −50 mV, with data filtered at 10 Hz and sampled at a rate of 100 Hz using an L780M ADC (LCard, Moscow, Russia). The synchronized delivery of solutions into the chamber and recording of electrophysiological results were carried out using in-house software v.2. Activation of ASIC channels occurred through rapid pH changes in the solution, achieved by replacing the working solution in the chamber with ND96-based solutions at varying pH levels. Specifically, HEPES was substituted with 10 mM MES for pH 5.5–6.5 and MOPS for pH 6.7–7.0.
Fresh peptide solutions were meticulously prepared in ND96 buffer with a pH of 7.43 immediately before experiments, with strict control over the pH levels. Peptides were applied for 30 s at a conditioning pH of 7.43 before acid stimulation of the channel. The interval between applications was maintained at a minimum of 1.5 to 2 min.
Electrophysiological data analysis was conducted using OriginPro 2018 software (OriginLab, Northampton, MA, USA). Dose–response relationships for Ugr9a-1, S16K, and A23K peptides were fitted using a Hill function: F1(x) = A − A/(1 + (x/IC50)^nH), where F1(x) represents the amplitude of the current at concentration x of the peptide, A is the maximum amplitude of the current, IC50 is the half-maximum inhibitory concentration of the peptide, and nH is the Hill coefficient.

[1] = CFA-induced hyperalgesia, von Frey test; type: in vivo, ICR mice; conditions: for increase in paw withdrawal threshold (PWT), significance by dose: 0.002, 0.02, 0.2 mg/kg i.m.
Method: (§1) In the CFA-induced hyperalgesia test, where CFA administration induces excess sensitivity to mechanical and thermal stimuli, the analgesic effects of peptides were assessed using von Frey filaments of varying forces (von Frey test) and a hot plate apparatus (hot plate test).
(§2) Adult male ICR mice (Animal Breeding Facility Branch of Shemyakin–Ovchinnikov Institute of Bioorganic Chemistry, Russian Academy of Sciences, Pushchino, Russia), weighing 20–25 g, were utilized. Animals were housed under controlled conditions, with a room temperature of 23 ± 2 °C, a 12 h light–dark cycle, and ad libitum access to food and water. Test substances were dissolved in saline. Peptides (Ugr9-1 and A23K at doses of 0.002, 0.02, and 0.2 mg/kg) and saline (for the control group) were administered intramuscularly 60 min prior to testing.
(§3) The abdominal constriction test of visceral pain (acetic acid-induced writhing pain model) and hyperalgesia induced by complete Freund’s adjuvant (CFA-induced inflammatory pain model) were performed as previously described.
For the von Frey filaments test, mice were positioned in a plastic chamber with access to the inflamed hind paw surface and an electronic von Frey filament (BIO-EVF, Bioseb, Vitrolles, France) was applied with gradually increasing pressure until withdrawal. Data, expressed as the strength of the applied mechanical stimulus from three applications, were averaged, with intervals between exposures of at least 1 min.
(§4) Statistical analysis was conducted using analysis of variance (ANOVA) with post hoc Tukey’s test, and data are presented as mean ± standard deviation (S.D.).

[2] = CFA-induced hyperalgesia, hot plate test; type: in vivo, ICR mice; conditions: hot plate 53 °C; for prolongation of paw withdrawal time, significance by dose: 0.002, 0.02, 0.2 mg/kg i.m.
Method: as §1, §2, §3, §4

[3] = 0.02 mg/kg i.m., one hour before testing, n = 7

SMILES	inhibition at 10 µM (rat ASIC1a channel; 10 µM, pH 5.5 stimulus, conditioning pH 7.4, peptide 30 s, mean ± SEM, n = 5, read-out: inhibitory effect on wild-type ASIC1a) [%]	activity on ASIC1a compared to S16K (rat ASIC1a channel; A23K versus S16K)	Hill slope (nH) (rat ASIC1a channel; inhibition of rat ASIC1a, pH 5.5 stimulus, conditioning pH 7.4, mean ± S.E.M., 5 cells)	IC50 (rat ASIC1a channel; rat ASIC1a, X. laevis oocytes, TEVC, Vh −50 mV, pH 5.5 stimulus, conditioning pH 7.4, peptide 30 s before stimulus, mean ± S.E.M., 5 cells, read-out: half-maximal inhibitory concentration (IC50)) [µM]	increase in PWT compared to Ugr9-1 ([1]; 0.02 mg/kg i.m., versus Ugr9-1)	increase in paw withdrawal threshold (PWT), significance by dose ([1]; one hour before testing, n = 7)	prolongation of paw withdrawal time, significance by dose ([2]; one hour before testing, n = 7)	paw withdrawal time effect compared to Ugr9-1 ([2]; versus Ugr9-1)	effect on ASIC1a at 50 µM (rat ASIC1a channel; 50 µM, representative current traces, pH 5.5 stimulus, conditioning pH 7.4)	activity towards rASIC1a (rat ASIC1a channel; pH 5.5 stimulus, conditioning pH 7.4)	increase in paw withdrawal threshold (maximum effect) [1, 3] [%]	increase in paw withdrawal time (maximum effect) [2, 3] [%]
CC[C@H](C)[C@H](N)C(=O)N[C@@H](CO)C(=O)N[C@H](C(=O)N[C@@H](CC(=O)O)C(=O)N1CCC[C@H]1C(=O)N1CCC[C@H]1C(=O)N[C@H]1CSSC[C@@H]2NC(=O)[C@H](CC(N)=O)NC(=O)CNC(=O)[C@H](CO)NC(=O)CNC(=O)[C@H](CC(=O)O)NC(=O)[C@H](CCCNC(=N)N)NC(=O)[C@H](Cc3c[nH]cn3)NC(=O)[C@H](Cc3ccc(O)cc3)NC(=O)[C@H](CSSC[C@@H](C(=O)NCC(=O)N[C@@H](C)C(=O)N[C@H](C(=O)O)C(C)C)NC(=O)CNC(=O)[C@H](Cc3ccc(O)cc3)NC(=O)[C@H](CCCCN)NC(=O)[C@H](CC(=O)O)NC(=O)[C@H](Cc3ccc(O)cc3)NC(=O)[C@H](C(C)C)NC2=O)NC(=O)[C@H](Cc2ccccc2)NC(=O)[C@H](CCCNC(=N)N)NC1=O)[C@@H](C)CC [A23K] (H-ISIDPPCRFCYHRDGSGNCVYDKYGCGAV-OH; disulfide 7-19, 10-26)	74.9 ± 6.5	over three times more active than S16K	2.84 ± 0.31	6.72	more than three times less effectively than Ugr9-1	significantly increased PWT only at 0.02 mg/kg	effects only at doses of 0.02 and 0.2 mg/kg	two times less effective than Ugr9-1	–	–	–	–
CC[C@H](C)[C@H](N)C(=O)N[C@@H](CO)C(=O)N[C@H](C(=O)N[C@@H](CC(=O)O)C(=O)N1CCC[C@H]1C(=O)N1CCC[C@H]1C(=O)N[C@H]1CSSC[C@@H]2NC(=O)[C@H](CC(N)=O)NC(=O)CNC(=O)[C@H](CO)NC(=O)CNC(=O)[C@H](CC(=O)O)NC(=O)[C@H](CCCNC(=N)N)NC(=O)[C@H](Cc3c[nH]cn3)NC(=O)[C@H](Cc3ccc(O)cc3)NC(=O)[C@H](CSSC[C@@H](C(=O)NCC(=O)N[C@@H](C)C(=O)N[C@H](C(=O)O)C(C)C)NC(=O)CNC(=O)[C@H](Cc3ccc(O)cc3)NC(=O)[C@H](C)NC(=O)[C@H](CC(=O)O)NC(=O)[C@H](Cc3ccc(O)cc3)NC(=O)[C@H](C(C)C)NC2=O)NC(=O)[C@H](Cc2ccccc2)NC(=O)[C@H](CCCNC(=N)N)NC1=O)[C@@H](C)CC [Ugr9-1] (H-ISIDPPCRFCYHRDGSGNCVYDAYGCGAV-OH; disulfide 7-19, 10-26)	–	–	–	–	–	significant increase in paw withdrawal threshold (PWT) at all doses	significantly prolonged paw withdrawal time at all doses	–	lack of effect	no activity	270	106
